From the NIST ThermoML archive (doi:10.1021/acs.jced.8b00662)

Experiment: xn = mol fraction of the nth substance listed
Conditions: 100 kPa, Liquid; for viscosity: Falling or rolling sphere viscometry; for mass density: Vibrating tube method

OCC1CC1 [cyclopropylmethanol] + c1ccc2c(c1)CCCC2
Conditions	mass density [kg/m3]	viscosity [mPa·s]
293.15 K, x2 = 0	913.02	3.988
293.15 K, x2 = 0.0993	921.89	3.498
293.15 K, x2 = 0.1972	929.26	3.134
293.15 K, x2 = 0.3008	936.02	2.837
293.15 K, x2 = 0.3978	941.84	2.622
293.15 K, x2 = 0.4986	947.21	2.449
293.15 K, x2 = 0.6031	952.27	2.318
293.15 K, x2 = 0.7031	956.72	2.229
293.15 K, x2 = 0.7981	960.63	2.182
293.15 K, x2 = 0.901	964.72	2.164
298.15 K, x2 = 0	908.96	3.455
298.15 K, x2 = 0.0993	917.77	3.039
298.15 K, x2 = 0.1972	925.12	2.734
298.15 K, x2 = 0.3008	931.86	2.49
298.15 K, x2 = 0.3978	937.67	2.313
298.15 K, x2 = 0.4986	943.05	2.173
298.15 K, x2 = 0.6031	948.12	2.068
298.15 K, x2 = 0.7031	952.59	1.997
298.15 K, x2 = 0.7981	956.53	1.963
298.15 K, x2 = 0.901	960.66	1.952
303.15 K, x2 = 0	904.87	3.009
303.15 K, x2 = 0.0993	913.62	2.656
303.15 K, x2 = 0.1972	920.94	2.402
303.15 K, x2 = 0.3008	927.67	2.2
303.15 K, x2 = 0.3978	933.47	2.053
303.15 K, x2 = 0.4986	938.85	1.94
303.15 K, x2 = 0.6031	943.94	1.855
303.15 K, x2 = 0.7031	948.44	1.8
303.15 K, x2 = 0.7981	952.41	1.774
303.15 K, x2 = 0.901	956.59	1.77
308.15 K, x2 = 0	900.74	2.635
308.15 K, x2 = 0.0993	909.43	2.338
308.15 K, x2 = 0.1972	916.73	2.123
308.15 K, x2 = 0.3008	923.44	1.958
308.15 K, x2 = 0.3978	929.24	1.836
308.15 K, x2 = 0.4986	934.63	1.747
308.15 K, x2 = 0.6031	939.74	1.675
308.15 K, x2 = 0.7031	944.26	1.633
308.15 K, x2 = 0.7981	948.28	1.613
308.15 K, x2 = 0.901	952.52	1.618
313.15 K, x2 = 0	896.59	2.321
313.15 K, x2 = 0.0993	905.22	2.068
313.15 K, x2 = 0.1972	912.49	1.889
313.15 K, x2 = 0.3008	919.19	1.754
313.15 K, x2 = 0.3978	925	1.651
313.15 K, x2 = 0.4986	930.4	1.579
313.15 K, x2 = 0.6031	935.53	1.521
313.15 K, x2 = 0.7031	940.09	1.491
313.15 K, x2 = 0.7981	944.15	1.474
313.15 K, x2 = 0.901	948.45	1.485
318.15 K, x2 = 0	892.38	2.054
318.15 K, x2 = 0.0993	900.96	1.84
318.15 K, x2 = 0.1972	908.2	1.688
318.15 K, x2 = 0.3008	914.89	1.577
318.15 K, x2 = 0.3978	920.7	1.492
318.15 K, x2 = 0.4986	926.13	1.433
318.15 K, x2 = 0.6031	931.29	1.387
318.15 K, x2 = 0.7031	935.88	1.366
318.15 K, x2 = 0.7981	939.99	1.355
318.15 K, x2 = 0.901	944.36	1.369
323.15 K, x2 = 0	888.17	1.825
323.15 K, x2 = 0.0993	896.69	1.644
323.15 K, x2 = 0.1972	903.9	1.517
323.15 K, x2 = 0.3008	910.59	1.423
323.15 K, x2 = 0.3978	916.41	1.355
323.15 K, x2 = 0.4986	921.85	1.305
323.15 K, x2 = 0.6031	927.06	1.271
323.15 K, x2 = 0.7031	931.69	1.254
323.15 K, x2 = 0.7981	935.85	1.235
323.15 K, x2 = 0.901	940.3	1.263
328.15 K, x2 = 0	883.86	1.629
328.15 K, x2 = 0.0993	892.34	1.476
328.15 K, x2 = 0.1972	899.54	1.369
328.15 K, x2 = 0.3008	906.23	1.291
328.15 K, x2 = 0.3978	912.06	1.22
328.15 K, x2 = 0.4986	917.54	1.195
328.15 K, x2 = 0.6031	922.78	1.169
328.15 K, x2 = 0.7031	927.49	1.156
328.15 K, x2 = 0.7981	931.68	1.157
328.15 K, x2 = 0.901	936.23	1.174
333.15 K, x2 = 0	879.52	1.46
333.15 K, x2 = 0.0993	887.95	1.331
333.15 K, x2 = 0.1972	895.13	1.241
333.15 K, x2 = 0.3008	901.83	1.176
333.15 K, x2 = 0.3978	907.69	1.131
333.15 K, x2 = 0.4986	913.2	1.1
333.15 K, x2 = 0.6031	918.5	1.08
333.15 K, x2 = 0.7031	923.23	1.071
333.15 K, x2 = 0.7981	927.51	1.076
333.15 K, x2 = 0.901	932.14	1.094
338.15 K, x2 = 0	875.1	1.316
338.15 K, x2 = 0.0993	883.49	1.205
338.15 K, x2 = 0.1972	890.66	1.13
338.15 K, x2 = 0.3008	897.37	1.078
338.15 K, x2 = 0.3978	903.28	1.041
338.15 K, x2 = 0.4986	908.82	1.015
338.15 K, x2 = 0.6031	914.15	1.004
338.15 K, x2 = 0.7031	918.94	0.996
338.15 K, x2 = 0.7981	923.3	1.003
338.15 K, x2 = 0.901	928.03	1.024
343.15 K, x2 = 0	870.62	1.19
343.15 K, x2 = 0.0993	878.98	1.095
343.15 K, x2 = 0.1972	886.15	1.033
343.15 K, x2 = 0.3008	892.87	0.99
343.15 K, x2 = 0.3978	898.8	0.961
343.15 K, x2 = 0.4986	904.39	0.941
343.15 K, x2 = 0.6031	909.78	0.933
343.15 K, x2 = 0.7031	914.63	0.931
343.15 K, x2 = 0.7981	919.07	0.941
343.15 K, x2 = 0.901	923.91	0.961
